“And” between values parts separate entries of the source, which are not always exact repeats. Equal values may be shown once. ± gives the expanded uncertainty stated by the source.

This is an account of results in the NIST ThermoML archive (doi:10.1021/acs.jced.8b00487).

The conditions of data set [1]: 298.15 K, Liquid, Vibrating tube method.
The nature of data set [2]: xn = mol fraction of the nth substance listed. To be noted: 298.15 K, 101 kPa, Liquid, Vibrating tube method.

For `CCCCC(CC)COP(=O)(O)OCC(CC)CCCC` (centres undefined) [bis(2-ethylhexyl) hydrogen phosphate], the mass density (usually the mass of a sample divided by its volume) was 971 ± 2 kg/m3 and 970.5 ± 2 kg/m3 in data set [1] (101 kPa); 969.1 ± 0.6 kg/m3 in data set [1] (101.33 kPa).

Turning to `Cc1ccccc1C` [1,2-dimethylbenzene], the mass density in data set [1] (101.33 kPa) stood at 875.6 ± 0.5 kg/m3.

In the case of `CCCCC(CC)COP(=O)([O-])OCC(CC)CCCC.CCCCC(CC)COP(=O)([O-])OCC(CC)CCCC.CCCCC(CC)COP(=O)([O-])OCC(CC)CCCC.[Sm+3]` (centres undefined) [samarium(III) bis(2-ethylhexyl) phosphate] + CCCCC(CC)COP(=O)(O)OCC(CC)CCCC, the mass density in data set [2] (x1 = 0.00583) stood at 974 ± 2 kg/m3; in data set [2] (x1 = 0.01288), 976.9 ± 2 kg/m3; in data set [2] (x1 = 0.01616) it was 978.9 ± 2 kg/m3; in data set [2] (x1 = 0.02646), 983.1 ± 2 kg/m3; in data set [2] (x1 = 0.03185), 986.2 ± 2 kg/m3; in data set [2] (x1 = 0.03372) it was 986.4 ± 2 kg/m3. The mass density was determined as 993.9 ± 2 kg/m3 in data set [2] (x1 = 0.05017), 997.2 ± 2 kg/m3 in data set [2] (x1 = 0.05958), 998.2 ± 2 kg/m3 in data set [2] (x1 = 0.06022) and 1001.8 ± 2 kg/m3 in data set [2] (x1 = 0.07053).

`CCCCC(CC)COP(=O)(O)OCC(CC)CCCC` (centres undefined) [bis(2-ethylhexyl) hydrogen phosphate] + CCCCC(CC)COP(=O)([O-])OCC(CC)CCCC.CCCCC(CC)COP(=O)([O-])OCC(CC)CCCC.CCCCC(CC)COP(=O)([O-])OCC(CC)CCCC.[Sm+3]: the mass density in data set [2] (x2 = 0) is 971 ± 2 kg/m3 and 970.5 ± 2 kg/m3.
